# Measured values reported in patent US6896914B2, “Method for normalizing insulin levels” (priority 2001, dated 2005).
# Experiments:
# obese patients = conditions: cited from earlier work
# [1] = test system: overweight male human subjects; assay: Example 1: double-blind study of enteric coated oral d-mannoheptulose with 1-glutamic acid, serum insulin, glucose and C-peptide; assay type: in vivo
# Method: A six-week double-blind study would also determine if combining an amino acid (i.e., 1-glutamic acid) and enteric coating would enhance the bioavailability and efficacy of oral d-mannoheptulose and prevent diarrhea. The amount of amino acid used was 500 mg per dose.
# Thirteen healthy male human subjects, aged thirty-seven to fifty-seven, each at least forty pounds overweight, underwent screening blood testing. The Automated Chemistry Profile used included the following measurements: Serum Glucose, BUN, Creatinine, BUN/Creatinine Ratio, Uric Acid, Sodium, Potassium, Chloride, Carbon Dioxide, Calcium, Phosphorous, Total Protein, Albumin, Globulin, A/G Ratio, Total Bilirubin, Alkaline Phosphatase, LDH, AST, ALT, and Iron. A Lipid Profile, and CBC with Differential were also measured. Tests specific to this study included C-Peptide, Serum Insulin, and Hemoglobin A1c.
# Subjects were randomly placed into two groups: “A” (Purple Caps) and “B” (Green Caps). Neither subject nor investigator knew which dosage forms were active and which were placebo. Once a week for three weeks, all subjects came to a local medical office while fasting and, stayed for a period of at least four hours. Blood was drawn from each subject in the fasting state, immediately following a high sugar meal, and at one and three hours after taking 500 mg. of MH. Additionally, fasting blood levels of glucose and insulin were drawn two times a week.
# The intent was to cross over the patient test groups at the end of three weeks. But, the response of the group receiving active substance was so obvious that any attempt to continue the double-blind methodology in secrecy was pointless. The active compound group not only stabilized their eating patterns, but also experienced considerable weight loss.
# At the end of the third week, the code was broken, confirming that the subjects with the dramatic response were getting the active oral dosage form. Thereafter, all subjects were given the same active dosage form.
# [2] = test system: overweight hyperinsulinemic male and female subjects; assay: Example 2: placebo-controlled crossover study of enteric coated d-manno-heptulose capsules, insulin, glucose, weight; assay type: in vivo, human
# Method: All study subjects had serum insulin, blood glucose, and C-peptide levels drawn. The relationship of insulin to glucose was determined by the following formula: Glucose (mg %)×0.41−34=Insulin Thus: 83 mg % glucose×0.41=34.03−34=0.03 or, insulin vanishes from the blood at 83 mg %. Subjects were male and females under the age of 50, who were at least 45 pounds overweight according to the body mass index (BMI). […] Sixteen subjects were given 500 mg of d-manno-heptulose (MH) in enteric coated capsules. Sixteen subjects were given placebo in similar appearing capsules. All subjects received doses four times a day, which were orally ingested in the presence of the investigator. Insulin and glucose levels were drawn one hour after ingesting capsules, two hours afterwards, and four hours afterwards. C-peptide levels were measured once a day. Patients were asked to keep meal logs, recording everything that they ingested by mouth, on a daily basis, for the duration of the study. The subjects and investigators were both blind to the group receiving active medication. At the end of three weeks, the test groups were switched. The group receiving active dosage forms was switched with the group receiving placebo. The initial time period was designed to be three weeks. However, four patients dropped out because they found the schedule too demanding. Nine of the control group patients expressed a desire to quit, and four were allowed to withdraw. The remaining twenty-four subjects completed the six week period.
# Hexokinase = conditions: cited from earlier work
# mammals including man = conditions: cited from earlier work
# [3] = twelve active medication subjects, first three weeks
smiles,measurement,setting,value
CC1=NS(=O)(=O)c2cc(Cl)ccc2N1 [diazoxide],effect on blood pressure,obese patients,drops blood pressure dangerously
same,effect on insulin levels,obese patients,lowers insulin levels
"O=C(CO)[C@@H](O)[C@@H](O)[C@H](O)[C@H](O)CO [MH, d-mannoheptulose]",weight loss and carbohydrate craving reported by participants,[1]; all study participants,significant weight-loss and reduction in carbohydrate craving
same,average fasting serum insulin lower than baseline,[1]; end of study vs baseline at beginning of study,26.41%
same,average reduction in C-peptide levels,"[1]; end of study vs baseline, two subjects",43%
same,fasting serum glucose higher than baseline,"[1]; end of study vs baseline, called insignificant",1.52%
same,lowering elevated serum insulin,[1]; enterically coated MH,effective short-term and long-term
same,nausea or diarrhea,[1]; enterically coated MH,not one instance of nausea or diarrhea was reported
same,indications of toxicity,"[1]; hematological or symptomatic, any subject",no hematological or symptomatic indications of toxicity
same,glycemic state of participant hypoglycemic at entry,[1]; one study participant,became normalglycemic
same,serum insulin lower than baseline fasting insulin,"[1]; three hours after one dose of MH, same-day glucose challenge, average",22.4%
same,average glucose increase,"[1]; three hours after one dose of MH, same-day glucose challenge, called insignificant",1.92%
same,Fasting insulin,"[2]; after active medication for three days, all subjects of A group",0
same,time to begin lowering plasma insulin levels,[2]; after administration,two
same,tolerance for high-sugar foods,[2]; all MH recipients while on medication,diminished tolerance for high-sugar foods
same,Fasting insulin,"[2]; control group changed from placebo to MH, middle of second day, after six doses",0
same,average per day weight loss,"[2]; control group changed from placebo to MH, over twenty-one days",2.2 lbs.
same,average weight loss after switch to placebo,[2]; original twelve active patients,0.7 lbs. per day
same,duration of insulin suppressing action after switch to placebo,"[2]; original twelve active patients, on average",eleven
same,Average weight loss,[2]; [3],1.6 lbs. per day per subject
same,greatest weight loss,[2]; [3],1.9 lbs. per day
same,lowest weight loss,[2]; [3],1.2 lbs. per day
same,average decrease of insulin levels,"[2]; two hours after administration of MH, A group, twelve subjects",81%
same,inhibition of hexokinase,Hexokinase,inhibits hexokinase in a predominantly competitive manner
same,effect on insulin release,mammals including man; mammals including man,lower fasting and glucose stimulated peak insulin release
same,absorption on oral administration,mammals including man; oral,poor absorption on oral administration
same,side effects on oral administration,mammals including man; oral,"unpleasant side effects (e.g., diarrhea, nausea)"
